Data published in publication PMC10852989, “Combining cisplatin and a STING agonist into one molecule for metalloimmunotherapy of cancer” (National Science Review, 2024).

Key:
MCF-7 cells = experiment: 72 h MTT cytotoxicity, MCF-7; type: cell-based, human
Protocol: Cytotoxicity. Tumor cells were cultured overnight after inoculation in RPMI-1640 medium or DMEM supplemented with 10% FBS. All cultures were maintained in an incubator in a highly humidified atmosphere of 95% air with 5% CO2 at 37 °C. Growth inhibition was measured with an MTT assay. Briefly, 2800–7000 cells per well in culture medium (100 μL) were plated in 96-well plates (Corning). The cells were treated in triplicate with different concentrations of complexes at 37 ℃ for 72 h. Stock solutions of CDDP and oxoplatin were prepared in PBS, while stock solutions of conjugates I and II and the ligand MSA-2 were prepared in DMSO. The stock solutions were diluted in complete medium (DMSO < 0.5%). An aliquot of MTT solution (40 μL, 2.5 mg·mL^–1) in PBS buffer was added to each well and incubated for 4 h. The supernatant was removed and DMSO (150 μL) was added to solubilize the formazan crystals. The amount of formazan was determined using a microplate reader at 570 nm after the plates were shaken for 30 min. The optical density (OD) was used to calculate the percentage of viable cells relative to untreated control values. Background readings for MTT incubated in cell-free medium were subtracted from each value before calculation. […] The mean IC50 values were calculated using data from three replicates.

[1] = reduction by ascorbic acid (AsA) followed by 1H-/195Pt-NMR; type: physicochemical; settings: 20 mM, 8 equiv. AsA, 5:1 d6-DMSO:D2O, 37 °C, dark
Protocol: Reduction of I and II. Samples were prepared by reacting I or II (20 mM) with 8 equiv. AsA in 5:1 d6-DMSO:D2O solutions. The time course of the reaction was monitored by ^1H-NMR and ^195Pt-NMR after incubation of the samples were incubated at 37 °C for 0, 3, 6, 12, 24, 36, 48, 60, 72, 84, 96, or 120 h in the dark.

[2] = system: BMDCs cultured with Pan02 cell CM; experiment: IFN-β ELISA of BMDCs incubated with conditioned medium of drug-treated Pan02 cells; type: cell-based, mouse
Protocol: (§1) ELISA. Bone marrow-derived dendritic cells (BMDCs) were prepared according to the following method. Briefly, femurs and tibias were removed from 4-6 week-old C57BL/6 mice, and the bone marrow cells were isolated. The bone marrow cells were incubated in T cell medium [RPMI-1640 medium (with GlutaMAX), supplemented with 10% FBS, 1% HEPES, 1% NEAA, 1% sodium pyruvate, and 0.1% βME] containing 20 ng/mL GM-CSF for 6 days after erythrocyte lysis, during which time half of the medium was replaced with fresh T cell medium once and the cytokines were supplemented. Then, the BMDCs were harvested on day 7 for further study.
Pan02 tumor cells were treated with various drugs at a concentration of 5 μM for 48 h, and then the drug-pretreated tumor cell supernatant was obtained by centrifugation at a speed of 12000 rpm/min for 5 min and used as conditioned media (CM) subsequently.
(§2) BMDCs were cultured with 50% CM plus 50% fresh medium for 18 h. In addition, BMDCs were cultured with fresh medium containing different complexes or mixtures (15 μM CDDP and I, a mixture of I and 8 equiv. AsA, and equal AsA). Then, all the BMDC supernatant was collected and centrifuged for subsequent cytokine analysis using ELISA kits, which were performed according to the manufacturer’s instructions.

[3] = system: Pan02 tumor tissue immune cells; experiment: flow cytometric analysis of immune cells in Pan02 tumor tissue; type: in vivo, mouse; settings: Pan02 tumors; comparable to CDDP and CDDP + MSA-2 groups
Protocol: Flow cytometric analysis. To analyze the levels of immune cells in the tumor microenvironment, mice were sacrificed six days after the final treatment. The obtained tumors were cut into pieces and digested in T cell medium. Single-cell suspensions were obtained after filtration through nylon mesh and incubated with various antibodies. FACS tests were carried out on a flow cytometer, and the results were analyzed with NovaExpress. The following monoclonal antibodies (mAbs) were used for flow cytometry: anti-CD3-APC (17A2), anti-CD4-AF700 (RM4-5), anti-CD8-PE (53-6.7), anti-NK1.1-PE/Cy7 (PK136), anti-PD-1-FITC (29F. 1A12), anti-CD69-PE/Cy5 (H1.2F3).

Pan02 tumors = experiment: scRNA-seq of Pan02 tumors; type: in vivo, mouse; settings: scRNA-seq at treatment endpoint, versus untreated
Text: ScRNA-seq. Tumors were excised from individual mice after treatment using a dissecting microscope and pooled. The tumors were cryopreserved in FBS + 10% DMSO. Samples were subsequently thawed, washed, sorted to isolate living cells and then performed on the 10X Genomics 5’ Chromium v2.0 platform according to the manufacturer’s instructions. Libraries were generated per the manufacturer’s protocol and sequenced on an Illumina HiSeq 2500 with the “rapid run” mode according to the standard 10X Genomics protocol. Data analysis was conducted by Singleron Biotech. Co. Ltd. using Cellranger and R.
Cell type annotation. The cell type identity of each cluster was determined from the expression of canonical markers found in the DEGs using SynEcoSys database. Heatmaps displaying the expression of markers used to identify each cell type were generated by Seurat v3.12 DoHeatmap.

STING pathway in BMDCs = experiment: IFN-β and IL-6 ELISA in supernatants of BMDCs treated with complexes; type: cell-based, mouse
Protocol: as §1, §2

[4] = octanol-water partition coefficient, shake-flask, ICP-MS; type: physicochemical; settings: n-octanol / phosphate buffer 10 mM pH 7.4, room temperature
Protocol: Lipid-water partition coefficient. The shake-flask method was used to measure the partition coefficients of CDDP, I and II. Briefly, a mixture containing equal volumes of n-octanol and phosphate buffer (10 mM, pH 7.4) was shaken on a mechanical shaker at room temperature for 24 h. Complexes (10 mM) in phosphate buffer (presaturated with n-octanol) were mixed with an equal volume of n-octanol (presaturated with phosphate buffer), and the mixture was shaken for 24 h at room temperature. Centrifugation was carried out at 2500 rpm for 30 min to separate the two phases. The aqueous layer was carefully separated, and the Pt content in the initial and final aqueous phases was analyzed by inductively coupled plasma mass spectrometry (ICP-MS). The log PO/W was measured using the following equation: log PO/W = log [(Ptinitial ‒ Ptfinal)/Ptfinal].

[5] = pretreated with 8 equiv. AsA for 24 h, compared with no pretreatment

For COc1cc2cc(C(=O)CCC(=O)[O][Pt]([NH2])([NH2])([OH])([Cl])[Cl])sc2cc1OC [conjugate I], the IC50 (MCF-7 cells) was 300 ± 100 nM, the “time at which reduction by AsA finished” value [1] was 24 h and the “IFN-β secretion by BMDCs pretreated with MyD88 inhibitor, treated Pan02 cell CM” value ([2]; MyD88 inhibitor TJ-M2010-5) was “significant decrease”. The “IFN-β secretion by BMDCs incubated with treated Pan02 cell CM” value ([2]; Pan02 treated 48 h at 5 μM (Pt-E-I 20 μM), BMDCs 50% CM, 18 h) was “markedly increased”, the “infiltration of CD8+ and CD4+ T cells” value [3] was “slightly increased” and the “frequencies of CD8 effector T, CD4 T and NK cells” value (Pan02 tumors) was “increased”. For the same compound, the “percentage of tumor cells” value (Pan02 tumors) was “decreased”, the “IFN-β secretion by BMDCs” value (STING pathway in BMDCs; 18 h, ELISA, 15 μM) was “minimal” and the “IL-6 secretion by BMDCs” value (STING pathway in BMDCs; 18 h, ELISA, 15 μM) was “minimal”. The “IFN-β secretion by BMDCs, compound pretreated with AsA” value (STING pathway in BMDCs; [5]) was “significantly enhanced”, the “IL-6 secretion by BMDCs, compound pretreated with AsA” value (STING pathway in BMDCs; [5]) was “significantly enhanced” and the “octanol-water partition coefficient (logPo/w)” value [4] was 0.9.
